Laboratory results: publication PMC8666671, “Fine-tuning spermidine binding modes in the putrescine binding protein PotF” (The Journal of Biological Chemistry, 2021)
Substitutions are numbered along the chain they refer to. Where “and” joins values, the source holds several entries; their conditions need not be identical. Equal entries are not always repeated. Where two headings read alike, the source gives them in different places.

Columns and labels:
PotF/D–E39D–F88A–S247D = target: T1, PotF/D–E39D–F88A–S247D (Escherichia coli, UniProt P31133, A182D/F276W/F88A/L348Q/S38T/S87Y); test: ITC, PotF/D–E39D–F88A–S247D; format: binding; conditions: 293 K; for n: ITC binding stoichiometry; for ΔG / ΔH / −TΔS / Kd: ITC; for Kd: 50 mM Tris pH 8, 300 mM NaCl, biological triplicates
T1 construct: without the N-terminal signal peptide; made in house; host or cells: E. coli BL21 (DE3)
T1 sequence (P31133 27-370 S38T/S87Y/F88A/A182D/F276W/L348Q): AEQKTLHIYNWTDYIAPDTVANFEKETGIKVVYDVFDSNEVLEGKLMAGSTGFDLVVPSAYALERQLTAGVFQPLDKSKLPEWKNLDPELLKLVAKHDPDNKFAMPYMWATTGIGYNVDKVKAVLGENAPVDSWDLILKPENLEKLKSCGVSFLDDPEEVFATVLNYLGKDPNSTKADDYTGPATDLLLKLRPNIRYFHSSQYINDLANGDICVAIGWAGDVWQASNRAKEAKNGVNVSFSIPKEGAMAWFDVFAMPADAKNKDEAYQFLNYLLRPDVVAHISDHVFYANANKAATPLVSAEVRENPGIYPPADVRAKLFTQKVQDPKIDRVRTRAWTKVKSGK
Procedure: (§1) Ligands were always freshly prepared in the exact same buffer as was used for the size exclusion run. Samples were degassed, and temperature was equilibrated using a degassing station (TA Instruments). About 400 μl protein sample of different concentrations (Table S5) depending on affinity was transferred into the sample cell of a nanoITC (TA Instruments), and 50 μl of about tenfold concentrated ligand solution was loaded into the injection needle. Multiple injection measurements were carried out at 293 K, 300 rpm stirring rate, and 250 s spacings between each 2 μl injection. The heat quantity past injection was determined by integration of the measured peaks. Every protein–ligand combination was measured as biological triplicate. Subtraction of heat of dilution measurements, peak integration, and one site binding fits were done with NanoAnalyze (TA Instruments). Reported errors are the errors between fits of the measured triplicates.

[1] = target: T2, PotF/D–E39D–Y87S–F88Y–S247D (Escherichia coli, UniProt P31133, A182D/F276W/F88Y/L348Q/S38T); test: ITC, PotF/D–E39D–Y87S–F88Y–S247D; format: binding; conditions: 293 K; for n: ITC binding stoichiometry; for ΔG / ΔH / −TΔS / Kd: ITC
T2 construct: without the N-terminal signal peptide; made in house; host or cells: E. coli BL21 (DE3)
T2 sequence (P31133 27-370 S38T/F88Y/A182D/F276W/L348Q): T1 sequence (P31133 27-370 S38T/S87Y/F88A/A182D/F276W/L348Q) with Y61S, A62Y
Procedure: as §1

PotF = target: PotF; design: method as in PMID 33406388; conditions: PotF wildtype, cited from earlier work
PotF_Abox-L348Q = target: T3, PotF_Abox-L348Q (Escherichia coli, UniProt P31133, F276W/L348Q); test: ITC, PotF_Abox-L348Q (F276W, L348Q); format: binding; conditions: 293 K; for n: ITC binding stoichiometry; for ΔG / ΔH / −TΔS / Kd: ITC; for Kd: 50 mM Tris pH 8, 300 mM NaCl, biological triplicates
T3 construct: without the N-terminal signal peptide; made in house; host or cells: E. coli BL21 (DE3)
T3 sequence (P31133 27-370 F276W/L348Q): T1 sequence (P31133 27-370 S38T/S87Y/F88A/A182D/F276W/L348Q) with T12S, Y61S, A62F, D156A
Procedure: as §1

PotF/D–E39D–F88L–S247D = target: T4, PotF/D–E39D–F88L–S247D (Escherichia coli, UniProt P31133, A182D/F276W/F88L/L348Q/S38T/S87Y); test: ITC, PotF/D–E39D–F88L–S247D; format: binding; conditions: 293 K; for n: ITC binding stoichiometry; for ΔG / ΔH / −TΔS / Kd: ITC; for Kd: 50 mM Tris pH 8, 300 mM NaCl, biological triplicates
T4 construct: without the N-terminal signal peptide; made in house; host or cells: E. coli BL21 (DE3)
T4 sequence (P31133 27-370 S38T/S87Y/F88L/A182D/F276W/L348Q): T1 sequence (P31133 27-370 S38T/S87Y/F88A/A182D/F276W/L348Q) with A62L
Procedure: as §1

PotF_Abox-S87Y = target: T5, PotF_Abox-S87Y (Escherichia coli, UniProt P31133, F276W/S87Y); test: ITC, PotF_Abox-S87Y (F276W, S87Y); format: binding; conditions: 293 K; for n: ITC binding stoichiometry; for ΔG / ΔH / −TΔS / Kd: ITC; for Kd: 50 mM Tris pH 8, 300 mM NaCl, biological triplicates
T5 construct: without the N-terminal signal peptide; made in house; host or cells: E. coli BL21 (DE3)
T5 sequence (P31133 27-370 S87Y/F276W): T1 sequence (P31133 27-370 S38T/S87Y/F88A/A182D/F276W/L348Q) with T12S, A62F, D156A, Q322L
Procedure: as §1

Row | Compound | n (PotF/D–E39D–F88A–S247D) | ΔG (PotF/D–E39D–F88A–S247D) [kcal/mol] | ΔH (PotF/D–E39D–F88A–S247D) [kcal/mol] | −TΔS (PotF/D–E39D–F88A–S247D) [kcal/mol] | Kd (PotF/D–E39D–F88A–S247D) [µM] | n [1] | ΔG [1] [kcal/mol] | ΔH [1] [kcal/mol] | −TΔS [1] [kcal/mol] | Kd (PotF; ITC) [µM] | ΔG (PotF; ITC) [kcal/mol] | ΔH (PotF; ITC) [kcal/mol] | −TΔS (PotF; ITC) [kcal/mol] | n (PotF_Abox-L348Q) | ΔG (PotF_Abox-L348Q) [kcal/mol] | ΔH (PotF_Abox-L348Q) [kcal/mol] | −TΔS (PotF_Abox-L348Q) [kcal/mol] | Kd (PotF_Abox-L348Q) | n (PotF/D–E39D–F88L–S247D) | ΔG (PotF/D–E39D–F88L–S247D) [kcal/mol] | further results
1 | NCCCCN [PUT, putrescine] | 0.92 ± 0.04 | -5.23 ± 0.02 | -5.21 ± 0.14 | -0.02 ± 0.15 | 126 ± 5.29 | 0.90 ± 0.01 | -5.51 ± 0.02 | -4.15 ± 0.05 | -1.36 ± 0.05 | 0.07 ± 0.04 | -9.74 ± 0.40 | -23.02 ± 0.12 | 13.28 ± 0.52 | 0.94 ± 0.03 | -7.48 ± 0.02 | -14.22 ± 0.75 | 6.74 ± 0.74 | ~3.3 µM and 2.66 µM | 0.90 ± 0.01 | -4.97 ± 0.13 | Kd ([1]; 50 mM Tris pH 8, 300 mM NaCl, biological triplicates, read-out: KD): 77.9 ± 3.17 µM; Kd (PotF): ~0.068 µM; ΔH (PotF/D–E39D–F88L–S247D): -5.54 ± 0.73 kcal/mol; −TΔS (PotF/D–E39D–F88L–S247D): 0.57 ± 0.86 kcal/mol; Kd (PotF/D–E39D–F88L–S247D): 203 ± 43.1 µM; n (PotF_Abox-S87Y): 0.92 ± 0.03; ΔG (PotF_Abox-S87Y): -6.47 ± 0.02 kcal/mol; ΔH (PotF_Abox-S87Y): -9.97 ± 0.20 kcal/mol; −TΔS (PotF_Abox-S87Y): 3.50 ± 0.18 kcal/mol; Kd (PotF_Abox-S87Y): 14.9 ± 0.54 µM
2 | NCCCCNCCCN [SPD, spermidine] | 0.91 ± 0.01 | -7.82 ± 0.06 | -4.75 ± 0.09 | -3.07 ± 0.14 | 1.48 ± 0.14 | 0.91 ± 0.02 | -8.17 ± 0.17 | -5.46 ± 0.08 | -2.71 ± 0.16 | 29.7 ± 1.15 | -6.07 ± 0.02 | -3.65 ± 0.06 | -2.42 ± 0.04 | 0.98 ± 0.01 | -7.83 ± 0.68 | -7.72 ± 0.03 | -0.11 ± 0.69 | ~2.6 µM and 3.26 µM | 0.93 ± 0.01 | -7.35 ± 0.09 | Kd ([1]; read-out: SPD affinity (KD)): 0.84 µM; ΔH (PotF/D–E39D–F88L–S247D): -4.19 ± 0.06 kcal/mol; −TΔS (PotF/D–E39D–F88L–S247D): -3.17 ± 0.10 kcal/mol; Kd (PotF/D–E39D–F88L–S247D): 3.33 ± 0.53 µM; n (PotF_Abox-S87Y): 0.97 ± 0.02; ΔG (PotF_Abox-S87Y): -6.30 ± 0.02 kcal/mol; ΔH (PotF_Abox-S87Y): -5.66 ± 0.12 kcal/mol; −TΔS (PotF_Abox-S87Y): -0.65 ± 0.12 kcal/mol; Kd (PotF_Abox-S87Y): 20 ± 0.7 µM
